This series is described as follows: Solubility screening tests in 8 solvent systems. The class given is physicochemical. The protocol:
Solubility screening tests were performed in 8 solvent systems: (1) Transcutol: Ethanol: Isopropyl myristate (IPM) 2:3:5 (v:v); (2) Transcutol: Ethanol 3:7 (v:v); (3) Ethanol: Propylene Glycol 1:1 (v:v); (4) Ethanol:H2O 7:3 (v:v); (5) IPM; (6) Ethanol:Tween 80: Cetyl Alcohol 90:5:5 (w:w); (7) CCT: Tween 80: Cetyl Alcohol 90:5:5 (w:w); and (8) CCT: Isopropanol 1:1 (v: v). […] One objective was to identify solvent systems for solution formulation at targeted API concentration of 1% by weight. Another objective was to identify solvents that are potentially good penetration enhancers and yet clinically viable. Since cetyl alcohol is solid, the solvent systems with them were prepared in weight ratios.

From patent US12319681B2, “Tripartite androgen receptor eliminators, methods and uses thereof” (SPG Therapeutics, Inc., priority 2017, dated 2025) come the findings set out here.

The structures appear in SMILES notation.

In the case of `CC12CCC(=O)C=C1C[C@@H](SC(=O)CC13CC4CC(CC(C4)C1)C3)C1C2CCC2(C)C1CC[C@@]21CCC(=O)O1` (some centres unmarked) [SPG-003], the solubility entry was “good solubility” (solvent system (1) Transcutol: Ethanol: Isopropyl myristate (IPM) 2:3:5 (v:v), target 1% by weight); “good solubility” (solvent system (2) Transcutol: Ethanol 3:7 (v:v), target 1% by weight); “not soluble” (solvent system (3) Ethanol: Propylene Glycol 1:1 (v:v), after extensive sonication); “not soluble” (solvent system (4) Ethanol:H2O 7:3 (v:v), after extensive sonication); “not soluble” (solvent system (5) IPM, after extensive sonication); “good solubility” (solvent system (6) Ethanol:Tween 80: Cetyl Alcohol 90:5:5 (w:w)). The solubility entry is given as “not soluble” (solvent system (7) CCT: Tween 80: Cetyl Alcohol 90:5:5 (w:w), after extensive sonication) and “good solubility” (solvent system (8) CCT: Isopropanol 1:1 (v: v)).
